{"source": "the supplement of paper PMC10307832", "experiment_in_all_cases": "relative viability (nuclei count vs DMSO), 5 days (fraction); higher = more cells survive", "key": {"NCI-H650": {"tested_on": "NCI-H650", "in_short": "(§1)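 Lung cancer cell lines were seeded in 1536-well plates and dosed by pin tool the next day, with either a single drug or a fixed anchor-drug dose combined with five library-drug doses (not always all listed) spaced in √10 steps. Five days later, one step fixed the cells and stained their nuclei (final 0.05% Triton X-100, 1% formaldehyde, 1 ug/ml Hoechst), and nuclei were counted on 4× images. Relative viability is the nuclei count in treated wells divided by the count in vehicle wells, and each value is the median of duplicate plates.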"}, "NCI-H2126": {"tested_on": "NCI-H2126", "in_short": "as §1"}, "NCI-H2023": {"tested_on": "NCI-H2023", "in_short": "as §1"}, "HOP-62": {"tested_on": "HOP-62", "in_short": "as §1"}, "EMC-BAC-2": {"tested_on": "EMC-BAC-2", "in_short": "as §1"}, "LC-2-ad": {"tested_on": "LC-2-ad", "in_short": "as §1"}, "NCI-H1395": {"tested_on": "NCI-H1395", "in_short": "as §1"}, "NCI-H727": {"tested_on": "NCI-H727", "in_short": "as §1"}, "HCC-15": {"tested_on": "HCC-15", "in_short": "as §1"}, "SW 900": {"tested_on": "SW 900", "in_short": "as §1"}, "NCI-H1437": {"tested_on": "NCI-H1437", "in_short": "as §1"}}}
{"compound": "Cc1cn(-c2cc(NC(=O)c3ccc(C)c(Nc4nccc(-c5cccnc5)n4)c3)cc(C(F)(F)F)c2)cn1", "note": "[Nilotinib] + O=C(CCCCCCC(=O)Nc1ccccc1)NO [Vorinostat] (partner 1 µM)", "values": [{"measurement": "relative viability", "setting": "NCI-H650; first compound 0.003162 µM", "result": 0.437}, {"measurement": "relative viability", "setting": "NCI-H650; first compound 0.01 µM", "result": 0.445}, {"measurement": "relative viability", "setting": "NCI-H650; first compound 0.03162 µM", "result": 0.407}, {"measurement": "relative viability", "setting": "NCI-H650; first compound 0.1 µM", "result": 0.377}, {"measurement": "relative viability", "setting": "NCI-H2126; first compound 0.001 µM", "result": 0.754}, {"measurement": "relative viability", "setting": "NCI-H2126; first compound 0.003162 µM", "result": 0.888}, {"measurement": "relative viability", "setting": "NCI-H2126; first compound 0.01 µM", "result": 0.864}, {"measurement": "relative viability", "setting": "NCI-H2126; first compound 0.03162 µM", "result": 0.764}, {"measurement": "relative viability", "setting": "NCI-H2126; first compound 0.1 µM", "result": 0.476}, {"measurement": "relative viability", "setting": "NCI-H2023; first compound 0.001 µM", "result": 0.469}, {"measurement": "relative viability", "setting": "NCI-H2023; first compound 0.003162 µM", "result": 0.455}, {"measurement": "relative viability", "setting": "NCI-H2023; first compound 0.01 µM", "result": 1.06}, {"measurement": "relative viability", "setting": "NCI-H2023; first compound 0.03162 µM", "result": 0.41}, {"measurement": "relative viability", "setting": "NCI-H2023; first compound 0.1 µM", "result": 0.174}, {"measurement": "relative viability", "setting": "HOP-62; first compound 0.001 µM", "result": 0.625}, {"measurement": "relative viability", "setting": "HOP-62; first compound 0.003162 µM", "result": 0.567}, {"measurement": "relative viability", "setting": "HOP-62; first compound 0.01 µM", "result": 0.631}, {"measurement": "relative viability", "setting": "HOP-62; first compound 0.03162 µM", "result": 0.479}, {"measurement": "relative viability", "setting": "EMC-BAC-2; first compound 0.001 µM", "result": 0.369}, {"measurement": "relative viability", "setting": "EMC-BAC-2; first compound 0.003162 µM", "result": 0.339}, {"measurement": "relative viability", "setting": "EMC-BAC-2; first compound 0.01 µM", "result": 0.429}, {"measurement": "relative viability", "setting": "EMC-BAC-2; first compound 0.03162 µM", "result": 0.319}, {"measurement": "relative viability", "setting": "EMC-BAC-2; first compound 0.1 µM", "result": 0.33}, {"measurement": "relative viability", "setting": "LC-2-ad; first compound 0.001 µM", "result": 0.644}, {"measurement": "relative viability", "setting": "LC-2-ad; first compound 0.003162 µM", "result": 0.851}, {"measurement": "relative viability", "setting": "LC-2-ad; first compound 0.01 µM", "result": 0.772}, {"measurement": "relative viability", "setting": "LC-2-ad; first compound 0.03162 µM", "result": 0.545}, {"measurement": "relative viability", "setting": "LC-2-ad; first compound 0.1 µM", "result": 0.318}, {"measurement": "relative viability", "setting": "NCI-H1395; first compound 0.001 µM", "result": 0.728}, {"measurement": "relative viability", "setting": "NCI-H1395; first compound 0.01 µM", "result": 0.616}, {"measurement": "relative viability", "setting": "NCI-H1395; first compound 0.03162 µM", "result": 0.59}, {"measurement": "relative viability", "setting": "NCI-H1395; first compound 0.1 µM", "result": 0.473}, {"measurement": "relative viability", "setting": "NCI-H727; first compound 0.001 µM", "result": 1.12}, {"measurement": "relative viability", "setting": "NCI-H727; first compound 0.003162 µM", "result": 1.35}, {"measurement": "relative viability", "setting": "NCI-H727; first compound 0.01 µM", "result": 1.16}, {"measurement": "relative viability", "setting": "NCI-H727; first compound 0.03162 µM", "result": 1.15}, {"measurement": "relative viability", "setting": "NCI-H727; first compound 0.1 µM", "result": 1.05}, {"measurement": "relative viability", "setting": "HCC-15; first compound 0.001 µM", "result": 0.791}, {"measurement": "relative viability", "setting": "HCC-15; first compound 0.003162 µM", "result": 0.913}, {"measurement": "relative viability", "setting": "HCC-15; first compound 0.01 µM", "result": 0.936}, {"measurement": "relative viability", "setting": "HCC-15; first compound 0.03162 µM", "result": 0.616}, {"measurement": "relative viability", "setting": "HCC-15; first compound 0.1 µM", "result": 0.761}, {"measurement": "relative viability", "setting": "SW 900; first compound 0.003162 µM", "result": 0.456}, {"measurement": "relative viability", "setting": "SW 900; first compound 0.01 µM", "result": 0.624}, {"measurement": "relative viability", "setting": "SW 900; first compound 0.03162 µM", "result": 0.216}, {"measurement": "relative viability", "setting": "SW 900; first compound 0.1 µM", "result": 0.368}, {"measurement": "relative viability", "setting": "NCI-H1437; first compound 0.001 µM", "result": 0.664}, {"measurement": "relative viability", "setting": "NCI-H1437; first compound 0.003162 µM", "result": 0.97}, {"measurement": "relative viability", "setting": "NCI-H1437; first compound 0.01 µM", "result": 0.878}, {"measurement": "relative viability", "setting": "NCI-H1437; first compound 0.03162 µM", "result": 0.506}, {"measurement": "relative viability", "setting": "NCI-H1437; first compound 0.1 µM", "result": 0.583}]}
